The structures appear in SMILES notation. Active and inactive are the calls of the source. No cut-off for these calls is given here.

These results are taken from ChEMBL document CHEMBL5236582, “Trehalose diesters containing a polar functional group-modified lipid moiety: Synthesis and evaluation of Mincle-mediated signaling activity” (Bioorg Med Chem, 2022).

In data set [1] the target is T1, C-type lectin domain family 4 member E (Mus musculus) (UniProt Q9R0Q8).
T1 sequence (whole entry): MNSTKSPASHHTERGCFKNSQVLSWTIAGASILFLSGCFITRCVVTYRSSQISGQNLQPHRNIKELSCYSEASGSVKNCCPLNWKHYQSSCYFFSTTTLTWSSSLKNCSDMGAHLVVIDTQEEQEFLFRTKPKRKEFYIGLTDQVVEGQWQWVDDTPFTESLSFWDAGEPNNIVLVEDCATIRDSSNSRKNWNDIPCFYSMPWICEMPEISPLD
Description: Induction of mouse Mincle expressed in NFAT-GFP reporter cells assessed as induction of mincle-mediated NFAT signaling activity by measuring stimulation of GFP reporter activity at 0.001 to 0.1 nmol/well incubated for 18 hrs by flow cytometry. It is filed as cell-based. As to conditions: filed as agonist, dose 0.001-0.1 nmol. On the technique in general: In flow cytometry, cells or beads pass a laser one at a time.

The target of data set [2] is T2, C-type lectin domain family 4 member E (Homo sapiens) (UniProt Q9ULY5).
T2 sequence (whole entry): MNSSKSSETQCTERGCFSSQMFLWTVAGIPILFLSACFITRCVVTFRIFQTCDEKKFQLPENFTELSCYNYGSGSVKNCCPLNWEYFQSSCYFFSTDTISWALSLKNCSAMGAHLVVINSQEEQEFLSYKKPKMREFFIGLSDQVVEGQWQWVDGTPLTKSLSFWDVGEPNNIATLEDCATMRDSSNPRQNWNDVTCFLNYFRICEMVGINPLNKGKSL
In words: Induction of human Mincle expressed in NFAT-GFP reporter cells assessed as induction of mincle-mediated NFAT signaling activity by measuring stimulation of GFP reporter activity at 0.001 to 0.1 nmol/well incubated for 18 hrs by flow cytometry. As to conditions: filed as agonist, dose 0.001-0.1 nmol. It is filed as cell-based.

Data set [3] in a line: Solubility of the compound in 1 mM DMSO. Type of data set: physicochemical.
Data set [4] concerns the target T1, C-type lectin domain family 4 member E (Mus musculus). In words: Induction of mouse Mincle expressed in NFAT-GFP reporter cells assessed as induction of mincle-mediated NFAT signaling activity by measuring stimulation of GFP reporter activity at 0.1 nmol/well incubated for 18 hrs by flow cytometry. It is filed as cell-based. As to conditions: filed as agonist.

Data set [5] has as its target T2, C-type lectin domain family 4 member E (Homo sapiens). In words: Induction of human Mincle expressed in NFAT-GFP reporter cells assessed as induction of mincle-mediated NFAT signaling activity by measuring stimulation of GFP reporter activity at 0.1 nmol/well incubated for 18 hrs by flow cytometry. As to conditions: filed as agonist. It is filed as cell-based.
Data set [6] is described as follows: Solubility of the compound in 8 mM DMSO. It is filed as physicochemical. As to conditions: 8000 µM.

Regarding `CCCCCCC(N)CCCCCCCCCCC(=O)OC[C@@H]1O[C@@H](O[C@H]2O[C@H](COC(=O)CCCCCCCCCCC(N)CCCCCC)[C@@H](O)[C@H](O)[C@H]2O)[C@@H](O)[C@H](O)[C@H]1O` (some centres undefined), the result in data set [1] and in data set [2] was Active.

Consider `CCCCCCC(=O)CCCCCCCCCCC(=O)OC[C@@H]1O[C@@H](O[C@H]2O[C@H](COC(=O)CCCCCCCCCCC(=O)CCCCCC)[C@@H](O)[C@H](O)[C@H]2O)[C@@H](O)[C@H](O)[C@H]1O`, for which the result in data set [1] and in data set [2] was Active.

With `CCCCCCCCCCCCC(O)CCCCCCCCC(=O)OC[C@@H]1O[C@@H](O[C@H]2O[C@H](COC(=O)CCCCCCCCC(O)CCCCCCCCCCCC)[C@@H](O)[C@H](O)[C@H]2O)[C@@H](O)[C@H](O)[C@H]1O` (some centres undefined), the solubility entry in data set [3] is on record as “Soluble”. The result in data set [1] and in data set [2] was Active.

Consider `CCCCCCCCC(N)CCCCCCCCC(=O)OC[C@@H]1O[C@@H](O[C@H]2O[C@H](COC(=O)CCCCCCCCC(N)CCCCCCCC)[C@@H](O)[C@H](O)[C@H]2O)[C@@H](O)[C@H](O)[C@H]1O` (some centres undefined), for which, in data set [3], the solubility entry was “Soluble”. The result in data set [1] and in data set [2] was Active.

For `CCCCCCCCCCC(O)CCCCCCC(=O)OC[C@@H]1O[C@@H](O[C@H]2O[C@H](COC(=O)CCCCCCC(O)CCCCCCCCCC)[C@@H](O)[C@H](O)[C@H]2O)[C@@H](O)[C@H](O)[C@H]1O` (some centres undefined), the result in data set [1] and in data set [2] was Active.

As for `CCCCCCCCCCCCCCCCCC(=O)OC[C@@H]1O[C@@H](O[C@H]2O[C@H](COC(=O)CCCCCCCCCCCCCCCCC)[C@@H](O)[C@H](O)[C@H]2O)[C@@H](O)[C@H](O)[C@H]1O`, the result in data set [4] and in data set [5] was Active.

For the compound `CCCCCCCCC(O)CCCCCCCCC(=O)OC[C@@H]1O[C@@H](O[C@H]2O[C@H](COC(=O)CCCCCCCCC(O)CCCCCCCC)[C@@H](O)[C@H](O)[C@H]2O)[C@@H](O)[C@H](O)[C@H]1O` (some centres undefined), the outcome in data set [4] and in data set [5] was Active. The solubility result in data set [6] is “Soluble”.

As for `CCCCCCC(O)CCCCCCCCCCC(=O)OC[C@@H]1O[C@@H](O[C@H]2O[C@H](COC(=O)CCCCCCCCCCC(O)CCCCCC)[C@@H](O)[C@H](O)[C@H]2O)[C@@H](O)[C@H](O)[C@H]1O` (some centres undefined), the result in data set [1] and in data set [2] was Active.

With `CCCCCCCCCCCCCCCCCCCCCCCC(C(=O)OC[C@@H]1O[C@@H](O[C@H]2O[C@H](COC(=O)C(CCCCCCCCCCCCCCCCCCCCCCC)C(O)CCCCCCCCCCCCCCCCCC3CC3CCCCCCCCCCCCCCC3CC3CCCCCCCCCCCCCCCCCC)[C@@H](O)[C@H](O)[C@H]2O)[C@@H](O)[C@H](O)[C@H]1O)C(O)CCCCCCCCCCCCCCCCCC1CC1CCCCCCCCCCCCCCC1CC1CCCCCCCCCCCCCCCCCC` (some centres undefined), the outcome in data set [4] and in data set [5] was Active.

For `CCCCCCCCC(=O)CCCCCCCCC(=O)OC[C@@H]1O[C@@H](O[C@H]2O[C@H](COC(=O)CCCCCCCCC(=O)CCCCCCCC)[C@@H](O)[C@H](O)[C@H]2O)[C@@H](O)[C@H](O)[C@H]1O`, the outcome in data set [1] and in data set [2] was Active.

With `CCCCCCCC(O)CCCCCCCCCC(=O)OC[C@@H]1O[C@@H](O[C@H]2O[C@H](COC(=O)CCCCCCCCCC(O)CCCCCCC)[C@@H](O)[C@H](O)[C@H]2O)[C@@H](O)[C@H](O)[C@H]1O` (some centres undefined), the result in data set [1] and in data set [2] was Active.

As for `CCCCCCCCCCCCC(=O)CCCCCCCCC(=O)OC[C@@H]1O[C@@H](O[C@H]2O[C@H](COC(=O)CCCCCCCCC(=O)CCCCCCCCCCCC)[C@@H](O)[C@H](O)[C@H]2O)[C@@H](O)[C@H](O)[C@H]1O`, the outcome in data set [1] and in data set [2] was Active.

With `CCCCCCCCCCCCC(N)CCCCCCCCC(=O)OC[C@@H]1O[C@@H](O[C@H]2O[C@H](COC(=O)CCCCCCCCC(N)CCCCCCCCCCCC)[C@@H](O)[C@H](O)[C@H]2O)[C@@H](O)[C@H](O)[C@H]1O` (some centres undefined), the result in data set [1] and in data set [2] was Active.
